# Measurements published in US20250163057A1, “DCN-1 MODULATING COMPOUNDS AND METHODS OF USE THEREOF” (Cellarity, Inc., priority 2023, published 2025).
# Experiments:
# [1] = system: fetal hemoglobin gene HBG1; experiment: HBG1 Nanostring Assay in CD34+ HSPC erythroid differentiation culture; format: cell-based, human; details: for EC50: Homo sapiens, 240 h, HBG1 induction, Day10 of erythroid differentiation; for Nanostring Ymax obs (%): relative to a control compound (C1)
# Procedure, shortened: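 CD34+ HSPCs were dosed from day −2 (0.1% DMSO) through two-phase erythroid differentiation (EPO, transferrin, SCF, IL-3, insulin; IL-3 removed from day 7) at 37° C, 5% CO2. Day-10 lysates of 100K cells were hybridized at 67° C for 22 h for nCounter counting, normalized to ERCC and housekeeping controls. EC50 and Ymax were derived, with Ymax relative to a control compound.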
# [2] = system: Cullin-3 (CUL3) neddylation; experiment: AlphaLISA assay for Cullin-3 (CUL3) neddylation in TF 1 cells; format: cell-based; details: Homo sapiens, TF-1, 3 h, 3 hours treatment
# Procedure, shortened: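 TF 1 cells in unsupplemented IMDM treated with compound concentrations for 3 h, then lysed. CUL3 neddylation detected by AlphaLISA (biotinylated anti-NEDD8, anti-CUL3 acceptor beads overnight, streptavidin donor beads 1 h); normalized to vehicle (0%) and 1 μM DI-1548 (100%), IC50 from Hill fits.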
Structure (SMILES),EC50 [1] [nM],Nanostring Ymax obs (%) [1],IC50 [2] [nM]
"CCN1C(=O)[C@@H](NC(=O)c2cccc(C(F)(F)F)c2)[C@@H](C2CC2)c2c(C(=O)N3[C@H](C#N)C[C@H]4C[C@H]43)nn(C3CCOCC3)c21 [Compound I-256, N-((4S,5S)-3-((1R,3S,5R)-3-cyano-2-azabicyclo[3.1.0]hexane-2-carbonyl)-4-cyclopropyl-7-ethyl-6-oxo-1-(tetrahydro-2H-pyran-4-yl)-4,5,6,7-tetrahydro-1H-pyrazolo[3,4-b]pyridin-5-yl)-3-(trifluoromethyl)benzamide]",≤ 100,+++ (Nanostring Ymax greater than 100.0),≤ 100
CCN1C(=O)[C@@H](NC(=O)c2cccc(C(F)(F)F)c2)[C@@H](c2ccc(F)cc2)c2c(C(=O)NC3(C#N)CC3)nn(-c3ccccc3)c21 [Compound I-112],100 to 1000,+++ (Nanostring Ymax greater than 100.0),100 to 1000
CCN1C(=O)[C@@H](NC(=O)c2cccc(C(F)(F)F)c2)[C@@H](c2ccc(F)cc2)c2c(C(=O)N(C)[C@@H](C#N)CCN(C)C)nn(C3CCOCC3)c21 [Compound I-369],≤ 100,+++ (Nanostring Ymax greater than 100.0),≤ 100
C=C(CN1CCC1)C(=O)NCc1nn(-c2ccccc2)c2c1[C@@H](c1ccc(F)cc1)[C@H](NC(=O)c1cccc(C(F)(F)F)c1)C(=O)N2CC [Compound I-139],–,++ (Nanostring Ymax greater than 50.0 and less than or equal to 100.0),≤ 100
